Source: patent US20050065187A1, “Novel antimicrobial aryloxazolidinone compounds” (priority 2003, published 2005)
≈ marks a conversion by molar mass, not a printed value. Read-outs that look alike come from different tables or passages of the source.

Tests used:
Assay in all cases: Antibacterial assay (Test A), microtitration MIC
[1] = test system: SAUR 9213; type: cell-based, S. aureus; conditions: Staphylococcus aureus, read-out: SAUR 9213 MIC
Experimental: (§1) Test A—Antibacterial Assays
(§2) The compounds of the present invention were tested against an assortment of Gram-negative and Gram-positive organisms using standard microtitration techniques (Cohen et. al., Antimicrob., 1985;28:766; Heifetz, et. al., Antimicrob., 1974;6:124).

[2] = test system: SPNE 9912; type: cell-based, S. pneumoniae; conditions: Streptococcus pneumoniae, read-out: SPNE 9912 MIC
Experimental: as §1, §2

[3] = test system: HINF 30063; type: cell-based, H. influenza; conditions: Minimum Inhibitory Concentration, strain HINF 30063
Experimental: as §1, §2

[4] = test system: MC 30603; type: cell-based, M. catarrhalis; conditions: Moraxella catarrhalis, read-out: MC 30603 MIC
Experimental: as §1, §2

[5] = Minimum Inhibitory Concentration, strain SAUR 9213
[6] = Minimum Inhibitory Concentration, strain SPNE 9912
[7] = Minimum Inhibitory Concentration, strain MC 30603

Structure (SMILES)	MIC [1, 5]	MIC [2, 6]	MIC [3]	MIC [4, 7]	MIC [1]	MIC [2]	MIC [4]
CC(=O)NC[C@H]1CN(c2ccc(C3CC[C@@H](O)[C@@H](O)C3)cc2)C(=O)O1 (single isomer, unassigned) [Example 12, N-{3-[4-(3,4-Dihydroxy-cyclohexyl)-phenyl]-2-oxo-oxazolidin-5-ylmethyl}-acetamide]	16 µg/mL (≈ 45.9 µM)	4 µg/mL (≈ 11.5 µM)	16 µg/mL (≈ 45.9 µM)	16 µg/mL (≈ 45.9 µM)	–	–	–
CC(=O)NC[C@H]1CN(c2ccc(C3CCC(O)C(F)C3)c(F)c2)C(=O)O1 (single isomer, unassigned) [Example 26, N-{3-[3-Fluoro-4-(3-fluoro-4-hydroxy-cyclohexyl)-phenyl]-2-oxo-oxazolidin-5-ylmethyl}-acetamide]	2 µg/mL (≈ 5.43 µM)	0.5 µg/mL (≈ 1.36 µM)	16 µg/mL (≈ 43.4 µM)	8 µg/mL (≈ 21.7 µM)	–	–	–
CCC(=O)NC[C@H]1CN(c2ccc(C3CCC(O)C(F)C3)c(F)c2)C(=O)O1 (single isomer, unassigned) [Example 27, N-{3-[3-Fluoro-4-(3-fluoro-4-hydroxy-cyclohexyl)-phenyl]-2-oxo-oxazolidin-5-ylmethyl}-propionamide]	2 µg/mL (≈ 5.23 µM)	0.25 µg/mL (≈ 0.654 µM)	8 µg/mL (≈ 20.9 µM)	2 µg/mL (≈ 5.23 µM)	–	–	–
O=C1O[C@@H](CNC(=S)C(F)F)CN1c1ccc(C2CCC(O)C(F)C2)c(F)c1 (single isomer, unassigned) [Example 28, 2,2-Difluoro-N-{3-[3-fluoro-4-(3-fluoro-4-hydroxy-cyclohexyl)-phenyl]-2-oxo-oxazolidin-5-ylmethyl}-thioacetamide]	1 µg/mL (≈ 2.38 µM)	0.5 µg/mL (≈ 1.19 µM)	32 µg/mL (≈ 76.1 µM)	2 µg/mL (≈ 4.76 µM)	–	–	–
CC(=O)NC[C@H]1CN(c2ccc(N3CC[C@@H](O)[C@@H](O)C3)c(F)c2)C(=O)O1 (stereo in doubt) [Example 1, N-{3-[4-(3,4-Dihydroxy-piperidin-1-yl)-3-fluoro-phenyl]-2-oxo-oxazolidin-5-ylmethyl}-acetamide]	–	–	32 µg/mL (≈ 87.1 µM)	–	8 µg/mL (≈ 21.8 µM)	2 µg/mL (≈ 5.44 µM)	8 µg/mL (≈ 21.8 µM)
CC(=O)NC[C@H]1CN(c2ccc(N3CC/C(=N/O)[C@@H](O)C3)c(F)c2)C(=O)O1 (stereo in doubt) [Example 3, N-{3-[3-Fluoro-4-(3-hydroxy-4-hydroxyimino-piperidin-1-yl)-phenyl]-2-oxo-oxazolidin-5-ylmethyl}-acetamide]	8 µg/mL (≈ 21 µM)	2 µg/mL (≈ 5.26 µM)	16 µg/mL (≈ 42.1 µM)	16 µg/mL (≈ 42.1 µM)	–	–	–
O=C1O[C@@H](Cn2ccnn2)CN1c1ccc(N2CC[C@@H](O)[C@@H](O)C2)c(F)c1 (stereo in doubt) [Example 5, 3-[4-(3,4-Dihydroxy-piperidin-1-yl)-3-fluoro-phenyl]-5-[1,2,3]triazol-1-ylmethyl-oxazolidin-2-one]	4 µg/mL (≈ 10.6 µM)	1 µg/mL (≈ 2.65 µM)	32 µg/mL (≈ 84.8 µM)	16 µg/mL (≈ 42.4 µM)	–	–	–
CCC(=O)NC[C@H]1CN(c2ccc(C3CCC(O)[C@@H](O)C3)c(F)c2)C(=O)O1 (stereo in doubt) [Example 8, N-{3-[4-(3,4-Dihydroxy-cyclohexyl)-3-fluoro-phenyl]-2-oxo-oxazolidin-5-ylmethyl}-propionamide]	8 µg/mL (≈ 21 µM)	2 µg/mL (≈ 5.26 µM)	8 µg/mL (≈ 21 µM)	8 µg/mL (≈ 21 µM)	–	–	–
O=C(NC[C@H]1CN(c2ccc(C3CCC(O)[C@@H](O)C3)c(F)c2)C(=O)O1)C(Cl)Cl (stereo in doubt) [Example 9, 2,2-Dichloro-N-{3-[4-(3,4-dihydroxy-cyclohexyl)-3-fluoro-phenyl]-2-oxo-oxazolidin-5-ylmethyl}-acetamide]	4 µg/mL (≈ 9.19 µM)	1 µg/mL (≈ 2.3 µM)	4 µg/mL (≈ 9.19 µM)	4 µg/mL (≈ 9.19 µM)	–	–	–
O=C(NC[C@H]1CN(c2ccc(C3CCC(O)[C@@H](O)C3)c(F)c2)C(=O)O1)C(F)F (stereo in doubt) [Example 10, N-{3-[4-(3,4-Dihydroxy-cyclohexyl)-3-fluoro-phenyl]-2-oxo-oxazolidin-5-ylmethyl}-2,2-difluoro-acetamide]	4 µg/mL (≈ 9.94 µM)	1 µg/mL (≈ 2.49 µM)	8 µg/mL (≈ 19.9 µM)	4 µg/mL (≈ 9.94 µM)	–	–	–
O=C1O[C@@H](CNC(=S)C(F)F)CN1c1ccc(C2CCC(O)[C@@H](O)C2)c(F)c1 (stereo in doubt) [Example 11, N-{3-[4-(3,4-Dihydroxy-cyclohexyl)-3-fluoro-phenyl]-2-oxo-oxazolidin-5-ylmethyl}-2,2-difluoro-thioacetamide]	1 µg/mL (≈ 2.39 µM)	0.5 µg/mL (≈ 1.19 µM)	8 µg/mL (≈ 19.1 µM)	4 µg/mL (≈ 9.56 µM)	–	–	–
O=C(NC[C@H]1CN(c2ccc(C3CCC(O)[C@@H](O)C3)cc2)C(=O)O1)C(Cl)Cl (stereo in doubt) [Example 13, 2,2-Dichloro-N-{3-[4-(3,4-dihydroxy-cyclohexyl)-phenyl]-2-oxo-oxazolidin-5-ylmethyl}-acetamide]	8 µg/mL (≈ 19.2 µM)	1 µg/mL (≈ 2.4 µM)	8 µg/mL (≈ 19.2 µM)	8 µg/mL (≈ 19.2 µM)	–	–	–
O=C(NC[C@H]1CN(c2ccc(C3CCC(O)[C@@H](O)C3)cc2)C(=O)O1)C(F)F (stereo in doubt) [Example 14, N-{3-[4-(3,4-Dihydroxy-cyclohexyl)-phenyl]-2-oxo-oxazolidin-5-ylmethyl}-2,2-difluoro-acetamide]	8 µg/mL (≈ 20.8 µM)	2 µg/mL (≈ 5.2 µM)	16 µg/mL (≈ 41.6 µM)	16 µg/mL (≈ 41.6 µM)	–	–	–
O=C1O[C@@H](CNC(=S)C(F)F)CN1c1ccc(C2CCC(O)[C@@H](O)C2)cc1 (stereo in doubt) [Example 15, N-{3-[4-(3,4-Dihydroxy-cyclohexyl)-phenyl]-2-oxo-oxazolidin-5-ylmethyl}-2,2-difluoro-thioacetamide]	4 µg/mL (≈ 9.99 µM)	1 µg/mL (≈ 2.5 µM)	16 µg/mL (≈ 40 µM)	8 µg/mL (≈ 20 µM)	–	–	–
CC(=O)NC[C@H]1CN(c2ccc(C3CCC(O)CC3)c(F)c2)C(=O)O1 (stereo in doubt) [Example 16, N-{3-[3-Fluoro-4-(4-hydroxy-cyclohexyl)-phenyl]-2-oxo-oxazolidin-5-ylmethyl}-acetamide]	2 µg/mL (≈ 5.71 µM)	1 µg/mL (≈ 2.85 µM)	8 µg/mL (≈ 22.8 µM)	4 µg/mL (≈ 11.4 µM)	–	–	–
CCC(=O)NC[C@H]1CN(c2ccc(C3CCC(O)CC3)c(F)c2)C(=O)O1 (stereo in doubt) [Example 17, N-{3-[3-Fluoro-4-(4-hydroxy-cyclohexyl)-phenyl]-2-oxo-oxazolidin-5-ylmethyl}-propionamide]	2 µg/mL (≈ 5.49 µM)	1 µg/mL (≈ 2.74 µM)	4 µg/mL (≈ 11 µM)	4 µg/mL (≈ 11 µM)	–	–	–
O=C(NC[C@H]1CN(c2ccc(C3CCC(O)CC3)c(F)c2)C(=O)O1)C(F)F (stereo in doubt) [Example 18, 2,2-Difluoro-N-{3-[3-fluoro-4-(4-hydroxy-cyclohexyl)-phenyl]-2-oxo-oxazolidin-5-ylmethyl}-acetamide]	2 µg/mL (≈ 5.18 µM)	0.5 µg/mL (≈ 1.29 µM)	8 µg/mL (≈ 20.7 µM)	4 µg/mL (≈ 10.4 µM)	–	–	–
NC(=O)[C@H]1CN(c2ccc(C3CCC(O)CC3)c(F)c2)C(=O)O1 (stereo in doubt) [Example 23, 3-[3-Fluoro-4-(4-hydroxy-cyclohexyl)-phenyl]-2-oxo-oxazolidine-5-carboxylic acid amide]	2 µg/mL (≈ 6.2 µM)	1 µg/mL (≈ 3.1 µM)	64 µg/mL (≈ 199 µM)	16 µg/mL (≈ 49.6 µM)	–	–	–
CC(=O)NC[C@H]1CN(c2ccc([C@@H]3CCC(=O)[C@@H](O)C3)c(F)c2)C(=O)O1 (stereo in doubt) [Example 25, N-{3-[3-Fluoro-4-(3-hydroxy-4-oxo-cyclohexyl)-phenyl]-2-oxo-oxazolidin-5-ylmethyl}-acetamide]	–	–	16 µg/mL (≈ 43.9 µM)	–	2 µg/mL (≈ 5.49 µM)	2 µg/mL (≈ 5.49 µM)	8 µg/mL (≈ 22 µM)
CC(=O)NC[C@H]1CN(c2ccc(N3CCC(=O)[C@@H](O)C3)c(F)c2)C(=O)O1 [Example 2, N-{3-[3-Fluoro-4-(3-hydroxy-4-oxo-piperidin-1-yl)-phenyl]-2-oxo-oxazolidin-5-ylmethyl}-acetamide]	4 µg/mL (≈ 10.9 µM)	1 µg/mL (≈ 2.74 µM)	16 µg/mL (≈ 43.8 µM)	8 µg/mL (≈ 21.9 µM)	–	–	–
CON=C1CCN(c2ccc(N3CC(CNC(C)=O)OC3=O)cc2F)CC1O (stereo not shown) [Example 4, N-{3-[3-Fluoro-4-(3-hydroxy-4-methoxyimino-piperidin-1-yl)-phenyl]-2-oxo-oxazolidin-5-ylmethyl}-acetamide]	8 µg/mL (≈ 20.3 µM)	2 µg/mL (≈ 5.07 µM)	64 µg/mL (≈ 162 µM)	32 µg/mL (≈ 81.1 µM)	–	–	–
O=C1CCN(c2ccc(N3C[C@H](Cn4ccnn4)OC3=O)cc2F)C[C@@H]1O [Example 6, 1-[2-Fluoro-4-(2-oxo-5-[1,2,3]triazol-1-ylmethyl-oxazolidin-3-yl)-phenyl]-3-hydroxy-piperidin-4-one]	4 µg/mL (≈ 10.7 µM)	1 µg/mL (≈ 2.66 µM)	64 µg/mL (≈ 171 µM)	8 µg/mL (≈ 21.3 µM)	–	–	–
O=C1O[C@@H](CNC(=S)C(F)F)CN1c1ccc(C2CCC(O)CC2)c(F)c1 (stereo partly shown) [Example 19, 2,2-Difluoro-N-{3-[3-fluoro-4-(4-hydroxy-cyclohexyl)-phenyl]-2-oxo-oxazolidin-5-ylmethyl}-thioacetamide]	2 µg/mL (≈ 4.97 µM)	0.5 µg/mL (≈ 1.24 µM)	8 µg/mL (≈ 19.9 µM)	2 µg/mL (≈ 4.97 µM)	–	–	–
CC(=O)NC[C@H]1CN(c2ccc(C3CCC(=O)CC3)c(F)c2)C(=O)O1 [Example 20, N-{3-[3-Fluoro-4-(4-oxo-cyclohexyl)-phenyl]-2-oxo-oxazolidin-5-ylmethyl}-acetamide]	2 µg/mL (≈ 5.74 µM)	0.5 µg/mL (≈ 1.44 µM)	16 µg/mL (≈ 45.9 µM)	8 µg/mL (≈ 23 µM)	–	–	–
CC(=O)NC[C@H]1CN(c2ccc(C3CCC(=NO)CC3)c(F)c2)C(=O)O1 (stereo partly shown) [Example 21, N-{3-[3-Fluoro-4-(4-hydroxyimino-cyclohexyl)-phenyl]-2-oxo-oxazolidin-5-ylmethyl}-acetamide]	1 µg/mL (≈ 2.75 µM)	0.5 µg/mL (≈ 1.38 µM)	16 µg/mL (≈ 44 µM)	8 µg/mL (≈ 22 µM)	–	–	–
